Experimental data: US6777412B2 (priority 1990, dated 2004)
Like-named read-outs stand apart in the source and are kept apart here. Marks after values point to notes of the source that are not given here.

Tests used:
Format in all cases: in vivo
Thanatephorus cucumeris = test: Foliar fungal disease test on plants: Thanatephorus cucumeris (Tc); conditions: 100 ppm active ingredient foliar spray plus root drench (approx. 40 ppm a.i. in dry soil), one or two days before inoculation
Method: (§1) The compounds were tested against a variety of foliar fungal diseases of plants. The technique employed was as follows.
(§2) The plants were grown in John Innes Potting Compost (No.1 or 2) in 4 cm diameter minipots. The test compounds were formulated either by bead milling with aqueous Dispersol T or as a solution in acetone or acetone/ethanol which was diluted to the required concentration immediately before use. For the foliage diseases, the formulations (100 ppm active ingredient except where otherwise indicated) were sprayed onto the foliage and applied to the roots of the plants in the soil. The sprays were applied to maximum retention and the root drenches to a final concentration equivalent to approximately 40 ppm a.i. in dry soil. Tween 20, to give a final concentration of 0.05%, was added when the sprays were applied to cereals.
(§3) For most of the tests the compound was applied to the soil (roots) and to the foliage (by spraying) one or two days before the plant was inoculated with the disease. An exception was the test on Erysiphe graminis in which the plants were inoculated 24 hours before treatment. Foliar pathogens were applied by spray as spore suspensions onto the leaves of test plants. After inoculation, the plants were put into an appropriate environment to allow infection to proceed and then incubated until the disease was ready for assessment. The period between inoculation and assessment varied from four to fourteen days according to the disease and environment.
(§4) The disease control vas recorded by the following grading:
(§5) 3=trace-5% of disease on untreated plants
(§6) 2=6-25% of disease on untreated plants
(§7) 1=26-59% of disease on untreated plants
(§8) 0=60-100% of disease on untreated plants
Tc Thanatephorus cucumeris

Pyricularia oryzae = tested on: Pyricularia oryzae
Plasmopara viticola = test: Foliar fungal disease test on plants: Plasmopara viticola (Pv)
Method: as §1, §2, §3, §4, §5, §6, §7, §8

[1] = tested on: Phytophthora infestans lycopersici
Puccinia recondita = test: Foliar fungal disease test on plants: Puccinia recondita (Pr)
Method: as §1, §2, §3, §4, §5, §6, §7, §8

Venturia inaequalis = test: Foliar fungal disease test on plants: Venturia inaequalis (Vi)
Method: as §1, §2, §3, §4, §5, §6, §7, §8

Erysiphe graminis hordei = test: Foliar fungal disease test on plants: Erysiphe graminis hordei (Egh); conditions: 100 ppm active ingredient foliar spray plus root drench (approx. 40 ppm a.i. in dry soil); plants inoculated 24 hours before treatment
Method: as §1, §2, §3, §4, §5, §6, §7, §8
Egh Erysiphe graminis hordei

Septoria nodorum = test: Foliar fungal disease test on plants: Septoria nodorum (Sn)
Method: as §1, §2, §3, §4, §5, §6, §7, §8

[2] = tested on: Erysiphe graminis tritici; test: Foliar fungal disease test on plants: Erysiphe graminis tritici (Egt)
Method: as §1, §2, §3, §4, §5, §6, §7, §8
Egt Erysiphe graminis tritici

[3] = 100 ppm active ingredient foliar spray plus root drench (approx. 40 ppm a.i. in dry soil), one or two days before inoculation
[4] = 100 ppm active ingredient foliar spray plus root drench (approx. 40 ppm a.i. in dry soil), plants inoculated 24 hours before treatment

Structure (SMILES): CO/C=C(/C(=O)OC)c1ccccc1Oc1cc(OCc2ccc([N+](=O)[O-])cc2)ncn1 [133 of Table I]
- disease control grading, Tc (Thanatephorus cucumeris) (Thanatephorus cucumeris): 4 (4=no disease)
- disease control grading, Po (Pyricularia oryzae) (Pyricularia oryzae; [3]): 3 (3=trace-5% of disease on untreated plants)
- disease control grading, Pv (Plasmopara viticola) (Plasmopara viticola; [3]): 4 (4=no disease)
- disease control grading, Pil (Phytophthora infestans lycopersici) [1, 3]: 0 (0=60-100% of disease on untreated plants)
- disease control grading, Pr (Puccinia recondita) (Puccinia recondita; [3]): 4 (4=no disease)
- disease control grading, Vi (Venturia inaegualis) (Venturia inaequalis; [3]): 3 (3=trace-5% of disease on untreated plants)
- disease control grading, Egh (Erysiphe graminis hordei) (Erysiphe graminis hordei): 4 (4=no disease)

Structure (SMILES): CO/C=C(/C(=O)OC)c1ccccc1Oc1cc(OCc2cccnc2)ncn1 [229 of Table I]
- disease control grading, Po (Pyricularia oryzae) (Pyricularia oryzae; [3]): 4 (4=no disease)
- disease control grading, Pv (Plasmopara viticola) (Plasmopara viticola; [3]): 4 (4=no disease)
- disease control grading, Pil (Phytophthora infestans lycopersici) [1, 3]: 3 (3=trace-5% of disease on untreated plants)
- disease control grading, Pr (Puccinia recondita) (Puccinia recondita; [3]): 4 (4=no disease)
- disease control grading, Sn (Septoria nodorum) (Septoria nodorum; [3]): 4 (4=no disease)
- disease control grading, Egt (Erysiphe graminis tritici) [2, 4]: 4 (4=no disease)
- disease control grading, Vi (Venturia inaegualis) (Venturia inaequalis; [3]): 4 (4=no disease)

Structure (SMILES): CO/C=C(/C(=O)OC)c1ccccc1Oc1cc(Cc2ccccc2)ncn1 [9 of Table I]
- disease control grading, Po (Pyricularia oryzae) (Pyricularia oryzae; [3]): 4 (4=no disease)
- disease control grading, Pv (Plasmopara viticola) (Plasmopara viticola; [3]): 4 (4=no disease)
- disease control grading, Pil (Phytophthora infestans lycopersici) [1, 3]: 4 (4=no disease)
- disease control grading, Pr (Puccinia recondita) (Puccinia recondita; [3]): 0 (0=60-100% of disease on untreated plants)
- disease control grading, Sn (Septoria nodorum) (Septoria nodorum; [3]): 4 (4=no disease)
- disease control grading, Egt (Erysiphe graminis tritici) [2, 4]: 4 (4=no disease)
- disease control grading, Vi (Venturia inaegualis) (Venturia inaequalis; [3]): 4 (4=no disease)

Structure (SMILES): CO/C=C(/C(=O)OC)c1ccccc1Oc1cc(O/N=C(\C)c2cnccn2)ncn1 [404 of Table I]
- disease control grading, Po (Pyricularia oryzae) (Pyricularia oryzae; [3]): 3 (3=trace-5% of disease on untreated plants)
- disease control grading, Pv (Plasmopara viticola) (Plasmopara viticola; [3]): 4 (4=no disease)
- disease control grading, Pil (Phytophthora infestans lycopersici) [1, 3]: 1 (1=26-59% of disease on untreated plants)
- disease control grading, Pr (Puccinia recondita) (Puccinia recondita; [3]): 4 (4=no disease)
- disease control grading, Sn (Septoria nodorum) (Septoria nodorum; [3]): 3 (3=trace-5% of disease on untreated plants)
- disease control grading, Egt (Erysiphe graminis tritici) [2, 4]: 4 (4=no disease)
- disease control grading, Vi (Venturia inaegualis) (Venturia inaequalis; [3]): 4 (4=no disease)

Structure (SMILES): CO/C=C(/C(=O)OC)c1ccccc1Oc1cc(-c2c(N)oc3ccccc23)ncn1 [400 of Table I]
- disease control grading, Po (Pyricularia oryzae) (Pyricularia oryzae; [3]): 0 (0=60-100% of disease on untreated plants)
- disease control grading, Pv (Plasmopara viticola) (Plasmopara viticola; [3]): 4 (4=no disease)
- disease control grading, Pil (Phytophthora infestans lycopersici) [1, 3]: 4 (4=no disease)
- disease control grading, Pr (Puccinia recondita) (Puccinia recondita; [3]): 4 (4=no disease)
- disease control grading, Sn (Septoria nodorum) (Septoria nodorum; [3]): 4 (4=no disease)
- disease control grading, Egt (Erysiphe graminis tritici) [2, 4]: 4 (4=no disease)
- disease control grading, Vi (Venturia inaegualis) (Venturia inaequalis; [3]): 4 (4=no disease)

Structure (SMILES): CO/C=C(/C(=O)OC)c1ccccc1Oc1cc(OCc2ccccc2[N+](=O)[O-])ncn1 [375 of Table I]
- disease control grading, Tc (Thanatephorus cucumeris) (Thanatephorus cucumeris): 4 (4=no disease)
- disease control grading, Po (Pyricularia oryzae) (Pyricularia oryzae; [3]): 4 (4=no disease)
- disease control grading, Pv (Plasmopara viticola) (Plasmopara viticola; [3]): 3 (3=trace-5% of disease on untreated plants)
- disease control grading, Pil (Phytophthora infestans lycopersici) [1, 3]: 0 (0=60-100% of disease on untreated plants)
- disease control grading, Pr (Puccinia recondita) (Puccinia recondita; [3]): 4 (4=no disease)
- disease control grading, Vi (Venturia inaegualis) (Venturia inaequalis; [3]): 3 (3=trace-5% of disease on untreated plants)
- disease control grading, Egh (Erysiphe graminis hordei) (Erysiphe graminis hordei): 4 (4=no disease)

Structure (SMILES): CCOc1ccccc1Nc1cc(Oc2ccccc2/C(=C\OC)C(=O)OC)ncn1 [401 of Table I]
- disease control grading, Po (Pyricularia oryzae) (Pyricularia oryzae; [3]): 0 (0=60-100% of disease on untreated plants)
- disease control grading, Pv (Plasmopara viticola) (Plasmopara viticola; [3]): 4 (4=no disease)
- disease control grading, Pil (Phytophthora infestans lycopersici) [1, 3]: 3 (3=trace-5% of disease on untreated plants)
- disease control grading, Pr (Puccinia recondita) (Puccinia recondita; [3]): 4 (4=no disease)
- disease control grading, Sn (Septoria nodorum) (Septoria nodorum; [3]): 4 (4=no disease)
- disease control grading, Egt (Erysiphe graminis tritici) [2, 4]: 4 (4=no disease)
- disease control grading, Vi (Venturia inaegualis) (Venturia inaequalis; [3]): 4 (4=no disease)

Structure (SMILES): CO/C=C(/C(=O)OC)c1ccccc1Oc1cc(O/N=C(\C)c2ccccc2)ncn1 [403 of Table I]
- disease control grading, Po (Pyricularia oryzae) (Pyricularia oryzae; 10 ppm foliar application only): 0^a (0=60-100% of disease on untreated plants)
- disease control grading, Pv (Plasmopara viticola) (Plasmopara viticola; 10 ppm foliar application only): 4^a (4=no disease)
- disease control grading, Pil (Phytophthora infestans lycopersici) ([1]; 10 ppm foliar application only): 1^a (1=26-59% of disease on untreated plants)
- disease control grading, Pr (Puccinia recondita) (Puccinia recondita; 100 ppm foliar application only): 4^b (4=no disease)
- disease control grading, Sn (Septoria nodorum) (Septoria nodorum; 10 ppm foliar application only): 0^a (0=60-100% of disease on untreated plants)
- disease control grading, Egt (Erysiphe graminis tritici) ([2]; 10 ppm foliar application only): 0^a (0=60-100% of disease on untreated plants)
- disease control grading, Vi (Venturia inaegualis) (Venturia inaequalis; 10 ppm foliar application only): 4^a (4=no disease)

Structure (SMILES): CO/C=C(/C(=O)OC)c1ccccc1Oc1cc(Sc2nc3ccccc3s2)ncn1 [530 of Table I]
- disease control grading, Po (Pyricularia oryzae) (Pyricularia oryzae; [3]): 0 (0=60-100% of disease on untreated plants)
- disease control grading, Pv (Plasmopara viticola) (Plasmopara viticola; [3]): 4 (4=no disease)
- disease control grading, Pil (Phytophthora infestans lycopersici) [1, 3]: 4 (4=no disease)
- disease control grading, Pr (Puccinia recondita) (Puccinia recondita; [3]): 3 (3=trace-5% of disease on untreated plants)
- disease control grading, Sn (Septoria nodorum) (Septoria nodorum; [3]): 4 (4=no disease)
- disease control grading, Egt (Erysiphe graminis tritici) [2, 4]: 4 (4=no disease)
- disease control grading, Vi (Venturia inaegualis) (Venturia inaequalis; [3]): 4 (4=no disease)

Structure (SMILES): CO/C=C(/C(=O)OC)c1ccccc1Oc1cc(OC/C=C/c2ccccc2)ncn1 [376 of Table I]
- disease control grading, Tc (Thanatephorus cucumeris) (Thanatephorus cucumeris): 4 (4=no disease)
- disease control grading, Po (Pyricularia oryzae) (Pyricularia oryzae; [3]): 3 (3=trace-5% of disease on untreated plants)
- disease control grading, Pv (Plasmopara viticola) (Plasmopara viticola; [3]): 4 (4=no disease)
- disease control grading, Pil (Phytophthora infestans lycopersici) [1, 3]: 4 (4=no disease)
- disease control grading, Pr (Puccinia recondita) (Puccinia recondita; [3]): 4 (4=no disease)
- disease control grading, Vi (Venturia inaegualis) (Venturia inaequalis; [3]): 4 (4=no disease)
- disease control grading, Egh (Erysiphe graminis hordei) (Erysiphe graminis hordei): 4 (4=no disease)

Structure (SMILES): CO/C=C(/C(=O)OC)c1ccccc1Oc1cc(OCc2cccnn2)ncn1 [271 of Table I]
- disease control grading, Po (Pyricularia oryzae) (Pyricularia oryzae; [3]): 2 (2=6-25% of disease on untreated plants)
- disease control grading, Pv (Plasmopara viticola) (Plasmopara viticola; [3]): 0 (0=60-100% of disease on untreated plants)
- disease control grading, Pil (Phytophthora infestans lycopersici) [1, 3]: 2 (2=6-25% of disease on untreated plants)
- disease control grading, Pr (Puccinia recondita) (Puccinia recondita; [3]): 4 (4=no disease)
- disease control grading, Sn (Septoria nodorum) (Septoria nodorum; [3]): 2 (2=6-25% of disease on untreated plants)
- disease control grading, Egt (Erysiphe graminis tritici) [2, 4]: 3 (3=trace-5% of disease on untreated plants)
- disease control grading, Vi (Venturia inaegualis) (Venturia inaequalis; [3]): 0 (0=60-100% of disease on untreated plants)

Structure (SMILES): CO/C=C(/C(=O)OC)c1ccccc1Oc1cc(-c2sc(-c3ccccc3O)nc2C)ncn1 [399 of Table I]
- disease control grading, Po (Pyricularia oryzae) (Pyricularia oryzae; 10 ppm foliar application only): 0^a (0=60-100% of disease on untreated plants)
- disease control grading, Pv (Plasmopara viticola) (Plasmopara viticola; 10 ppm foliar application only): 4^a (4=no disease)
- disease control grading, Pil (Phytophthora infestans lycopersici) ([1]; 10 ppm foliar application only): 0^a (0=60-100% of disease on untreated plants)
- disease control grading, Pr (Puccinia recondita) (Puccinia recondita; 10 ppm foliar application only): 0^a (0=60-100% of disease on untreated plants)
- disease control grading, Sn (Septoria nodorum) (Septoria nodorum; 10 ppm foliar application only): 0^a (0=60-100% of disease on untreated plants)
- disease control grading, Egt (Erysiphe graminis tritici) ([2]; 10 ppm foliar application only): 0^a (0=60-100% of disease on untreated plants)
- disease control grading, Vi (Venturia inaegualis) (Venturia inaequalis; 10 ppm foliar application only): 3^a (3=trace-5% of disease on untreated plants)

Structure (SMILES): CO/C=C(/C(=O)OC)c1ccccc1Oc1cc(OCCOc2c(F)cccc2C#N)ncn1 [397 of Table I]
- disease control grading, Po (Pyricularia oryzae) (Pyricularia oryzae; [3]): 4 (4=no disease)
- disease control grading, Pv (Plasmopara viticola) (Plasmopara viticola; [3]): 4 (4=no disease)
- disease control grading, Pil (Phytophthora infestans lycopersici) [1, 3]: 3 (3=trace-5% of disease on untreated plants)
- disease control grading, Pr (Puccinia recondita) (Puccinia recondita; [3]): 4 (4=no disease)
- disease control grading, Sn (Septoria nodorum) (Septoria nodorum; [3]): 3 (3=trace-5% of disease on untreated plants)
- disease control grading, Egt (Erysiphe graminis tritici) [2, 4]: 4 (4=no disease)
- disease control grading, Vi (Venturia inaegualis) (Venturia inaequalis; [3]): 4 (4=no disease)
